{"source": "paper PMC4554882", "about": "(Bioorganic & medicinal chemistry, 2015)", "key": {"[1]": {"test_system": "tubulin", "test": "Inhibition of [3H]colchicine binding to tubulin", "settings": "tubulin 1 μM, [3H]colchicine 5 μM, 10 min at 37 °C"}, "[2]": {"test_system": "DU145 (prostate cancer)", "settings": "read-out: GI50 (μM ± SD) DU145, ref [14]; cited from earlier work"}, "[3]": {"test_system": "tubulin", "settings": "tubulin 1 μM, [3H]colchicine 5 μM, ref [14], cited from earlier work"}, "[4]": {"test": "Aqueous solubility", "format": "physicochemical", "settings": "pH 7.4, Solubility (μg/mL), mean ± SD of three experiments"}, "[5]": {"test_system": "human tumor cell lines (A549, KB, KBvin, DU145)", "test": "SRB cytotoxicity, HTCL panel as a whole", "format": "cell-based", "settings": "read-out: GI50 values across the HTCL panel, range over A549, KB"}, "[6]": {"test_system": "tubulin", "test": "Tubulin assembly inhibition", "format": "biochemical"}}, "note": "Like-named read-outs stand apart in the source and are kept apart here.", "data": [{"molecule": "COc1ccc(/C=C\\c2cc(OC)c(OC)c(OC)c2)cc1O", "note": "[CA-4, combretastatin A-4]", "values": [{"measurement": "Inhibition of colchicine binding % Inhibition ± SD 1 μM", "setting": "[1]; inhibitor 1 μM", "value": "84 ± 0.3", "unit": "%"}, {"measurement": "Inhibition of colchicine binding % Inhibition ± SD 5 μM", "setting": "[1]; inhibitor 5 μM", "value": "97 ± 0.4", "unit": "%"}]}, {"molecule": "COc1ccc2c(c1)CCCN2c1nc(Cl)nc2ccccc12", "note": "[Compound 1a]", "values": [{"measurement": "GI50", "setting": "[2]", "value": "0.0015 ± 0.0003", "unit": "µM"}, {"measurement": "Inhibition of colchicine binding % Inhibition ± SD 1 μM", "setting": "[3]; inhibitor 1 μM", "value": "95 ± 0.7", "unit": "%"}, {"measurement": "Inhibition of colchicine binding % Inhibition ± SD 5 μM", "setting": "[3]; inhibitor 5 μM", "value": "99 ± 0.6", "unit": "%"}]}, {"molecule": "COc1ccc2c(c1)CCCN2c1nc(NCCCO)nc2ccccc12", "note": "[Compound 4a, N^1-(2′-(3-Hydroxypropyl)aminoquinazol-4′-yl)-6-methoxy-1,2,3,4-tetrahydro-quinoline]", "values": [{"measurement": "solubility at 4 h", "setting": "[4]", "value": 75, "unit": "µg/mL"}, {"measurement": "GI50", "setting": "[5]", "value": "16 to 20", "unit": "nM"}]}, {"molecule": "COc1ccc2c(c1)CCCN2c1nc(NC2CCCC2)nc2ccccc12", "note": "[Compound 4c]", "values": [{"measurement": "GI50", "setting": "[5]", "value": "140 to 1420", "unit": "nM"}]}, {"molecule": "COc1ccc2c(c1)CCCN2c1cccc2cccnc12", "note": "[Compound 8d, 6-Methoxy-3,4-dihydro-2H-1,8′-biquinoline]", "values": [{"measurement": "inhibitory activity in the assembly assay", "setting": "[6]", "value": "did not display significant inhibitory activity"}]}]}
